Results as given in patent publication US9592229B2, “Potent anticancer activity via dual compound activation” (priority 2012, dated 2017).

Experiments:
MCF-7 cells = test: Protection by a pan-caspase inhibitor against PAC-1/1541B-mediated cell death; type: cell-based; conditions: Q-VD-OPh 25 μM
Text: The proapoptotic effect of the PAC-1/1541B combination was blocked with the pan-caspase inhibitor Q-VD-OPh, consistent with the involvement of caspases in the mode of cell death (FIG. 10).

[1] = tested on: procaspase-3 in U-937, A549, BT-549 cell lines; test: Western blot of procaspase-3 cleavage to caspase-3 in cancer cell lines; type: cell-based, human
Text: FIG. 5. PAC-1/1541B combinations induce rapid and dramatic procaspase-3 maturation and activation. A: The caspase-3/-7-like activity of cancer cell lysates after treatment with the PAC-1/1541B combinations. STS=staurosporine. B: Western blot of various cancer cell lines (using Cell Signaling caspase-3 antibody) after treatment with combinations of PAC-1 and 1541B.
FIG. 6. Data analogous to FIG. 5B with A: HL-60 (human leukemia), B: EL4 (murine lymphoma), C: Hs578T (human breast cancer), and D: Jurkat (human leukemia) cell lines.
FIG. 13. Western blot procaspase3 activation analysis of U-937 cells treated with increasing concentrations of 1541B and either with or without PAC-1.
To determine if the elevation of DEVDase activity was the result of enhanced cleavage of procaspase-3 to caspase-3 facilitated by compound co-treatment, cells treated with PAC-1 and 1541B combinations were assessed by Western blot.
Rather 1541 operates by an allosteric binding and activation mechanism.

[2] = tested on: EL4 (murine lymphoma) cells; test: EL4 syngeneic murine tumor model; type: in vivo, C57/BL6 mice; conditions: PAC-1 125 mg/kg in HPβCD once-a-day for three days; tumors weighed after 8 days
Experimental: EL4 cells (10 million cells per mouse) were injected subcutaneously into mice, the animals were split into four groups and treated with vehicle (2-hydroxypropyl-β-cyclodextrin, HPβCD), 1541B (at 17.5 mg/kg in HPβCD), PAC-1 (125 mg/kg in HPβCD), or 1541B+PAC-1 (17.5 and 125 mg/kg, respectively, in HPβCD). After eight days the mice were sacrificed and the tumors excised and weighed. Error bars equal standard error, and p-values indicated are relative to vehicle control.
To explore the therapeutic utility of this dual procaspase-3 activation strategy, the combination of PAC-1 and 1541B were examined in a murine tumor model.
C57/BL6 mice implanted with EL4 (murine lymphoma) cells were treated with PAC-1 alone (125 mg/kg), 1541B alone (17.5 mg/kg), and PAC-1+1541B (125 mg/kg and 17.5 mg/kg, respectively) once-a-day for three days.

Structure (SMILES) | protection against PAC-1/1541B-mediated cell death (MCF-7 cells) | activation of procaspase-3 to caspase-3 (Western blot) [1] | effect on tumor growth [2]
CC(C)[C@H](NC(=O)c1ccc2ccccc2n1)C(=O)N[C@@H](CC(=O)O)C(=O)COc1c(F)cccc1F [Q-VD-OPh] | protects against PAC-1/1541B-mediated cell death | – | –
C=CCc1cccc(/C=N/NC(=O)CN2CCN(Cc3ccccc3)CC2)c1O [PAC-1, 2-(4-benzylpiperazin-1-yl)-N-[(2-hydroxy-3-prop-2-enyl-phenyl)methylideneamino]acetamide] | – | low/no procaspase-3 activation | only minimal effect
